Data published in US20080305559A1, “Non-Competitive Immunoassays to Detect Small Molecules” (priority 2005, published 2008).
Values joined by “and” are separate entries in the source; they are usually repeats but may differ in a detail not shown here. Equal values may be shown once. No end group written: not given here.

Tests used:
[1] = tested on: anti-PBA polyclonal antibodies; assay: Cross-reactivity of the noncompetitive phage ELISA for PBA; type: binding, rabbit; settings: for CR (%): % cross-reactivity=100×[SC50(PBA)/SC50(cross-reacting compound)]; for IC50: noncompetitive phage ELISA for PBA
Protocol: The specificity of the noncompetitive assay set up with the phage borne peptide was characterized by determining its cross-reactivity with structurally related pesticides. PBA concentrations in the 0-50 ng/ml range were used in the noncompetitive ELISAs. Data were normalized, and the molar compound concentration corresponding to the midpoint of the curve, (which corresponds to the concentration of analyte producing 50% saturation of the signal (SC50), was used to express the cross-reactivity of the assay according to the equation:
% cross−reactivity=100×[SC50(PBA)/SC50(cross−reacting compound)]

[2] = tested on: atrazine-MoAb K4E7 immunocomplex; assay: Noncompetitive phage assay (PHAIA) for atrazine; type: binding; settings: atrazine as analyte; MoAb K4E7 immobilized; phage borne peptides as tracers
Protocol: In this case, we used the MoAb K4E7 specific for atrazine. The conventional chemical hapten assay developed with this MoAb (see, e.g., Giersch, J Ag. Food Chem. 41: 1006-1011 (1993)) allows one to reach an IC50 of 0.5 ng/ml. We used the atrazine-MoAb K4E7 immunocomplex to select phage borne peptides that could be used to develop a noncompetitive assay. The protocols used for panning and assay set up were identical to those used for the molinate-MoAb 14D7 system described in Example 1 above. […] A short consensus sequence was identified: WFD. The consensus sequence can occur at position two or five of the random sequence. […]
Fifty μl per well of serial dilutions of molinate standard in PBST were dispensed into microtiter plates coated with MoAb 14D7, followed by the addition of 50 μl/well of the adequate dilution of the stabilized phage suspension. […] Absorbance values were fitted to a four-parameter logistic equation using the Genesis Lite 3.03 (Life Sciences (UK) Ltd.) package software. The lower detection limit (DL) of the assays was estimated as the analyte concentration corresponding to the absorbance equal to that of the zero standard plus three times its standard deviation).

MoAb K4E7 [3] = settings: atrazine, Giersch 1993; cited from earlier work
MoAb K4E7 [4] = settings: atrazine; Cardozo et al. 2005; cited from earlier work
MoAb 14D7 [5] = settings: molinate, Rufo et al. 2004; cited from earlier work
MoAb 14D7 [6] = settings: molinate; Cardozo et al. 2005; cited from earlier work
[7] = tested on: molinate-MoAb 14D7 immunocomplex; assay: Noncompetitive phage ELISA (PHAIA) for molinate; type: binding; settings: molinate as analyte, plates coated with MoAb 14D7, named phage borne peptide as tracer
Text: In a similar way that the IC50 (the analyte concentration producing 50% inhibition) is used to denote the sensitivity of competitive methods, we refer to the concentration of analyte producing 50% saturation (SC50) in noncompetitive assays as a practical parameter to compare the sensitivity of our assays. […] For each of these clones, the assay conditions were optimized as described previously. […] These differences highlight the importance of the residues that flank the WDT consensus sequence of the selected peptides. This can be seen in the case of the S1 and S4 peptide sequences, which only differ in two amino acids and yield assays with SC50 of 5 and 32 ng/ml, respectively.
(§1) Nunc-Immuno™ Maxi-Sorp™ plates were coated with MoAb 14D7 or molinate-MoAb 14D7 immunocomplex as described previously. The wells were blocked with 5% skimmed milk PBS, and washed three times with PBST. One hundred μl/well of an overnight culture of individual amplified phage clones were dispensed into the wells. The microtiter plates where then incubated for 1 h at room temperature with gentle rocking. After washing three times with PBST, 100 μL of a 1/5000 dilution of horse radish peroxidase (HRP) labeled anti-M13 monoclonal antibody (Pharmacia, Uppsala) in PBST were added to each well. One hour later, the plates were thoroughly washed and 100 μl of peroxidase substrate (25 ml of 0.1 M citrate acetate buffer pH 5.5, 0.4 ml of 6 mg/ml DMSO solution of 3,3′,5,5′-tetramethylbenzidine, and 0.1 ml of 1% H2O2) were dispensed into each well. The enzymatic reaction was stopped after 15-20 min by the addition of 50 μl of 2 M H2SO4, and the absorbance at 450 nm (corrected at 600 nm) was read in a microtiter plate reader (Multiskan MS, Labsystems). The supernatants showing high readings in wells coated with the immunocomplex and low response in antibody coated wells were prepared as stabilized phage suspensions (see below), and use for further analysis. For checkerboard titration, 100 μl of variable concentrations of the antibody (0.3-2 μg/ml) were used for coating.
Fifty μl per well of serial dilutions of molinate standard in PBST were dispensed into microtiter plates coated with MoAb 14D7, followed by the addition of 50 μl/well of the adequate dilution of the stabilized phage suspension. The antibody concentration used for coating and the proper dilution of the phage suspension had been previously optimized by checkerboard experiments. After an hour incubation period at room temperature, the plates were washed and developed as previously described. Absorbance values were fitted to a four-parameter logistic equation using the Genesis Lite 3.03 (Life Sciences (UK) Ltd.) package software. The lower detection limit (DL) of the assays was estimated as the analyte concentration corresponding to the absorbance equal to that of the zero standard plus three times its standard deviation).

MoAb 14D7 [8] = assay: Phage ELISA checkerboard titration: reactivity with the IC and the uncombined antibody; type: binding; settings: wide range of MoAb 14D7 coating densities, absence of molinate
Protocol: as §1

Compound | CR (%) [1] [%] | IC50 [1] [µg/mL] | SC50 (concentration of analyte producing 50% saturation) [7] | other results
O=C(O)c1ccc(O)cc1 [4-Hydroxybenzoic acid] | 0 | >0.1 | – | –
CC1(C)C(C=C(Cl)Cl)C1C(=O)OC(C#N)c1cccc(Oc2ccccc2)c1 (stereo not drawn) [Cypermethrin] | 0 | >0.1 | – | –
CC(C)C(C(=O)OC(C#N)c1cccc(Oc2ccccc2)c1)c1ccc(Cl)cc1 (stereo not drawn) [Esfenvalerate] | 0 | >0.1 | – | –
O=C(O)CNC(=O)c1cccc(Oc2ccccc2)c1 [PBA-glycine conjugate] | 0 | >0.1 | – | –
CC1(C)C(C=C(Cl)Cl)C1C(=O)OCc1cccc(Oc2ccccc2)c1 (stereo not drawn) [Permethrin] | 0 | >0.1 | – | –
CCNc1nc(Cl)nc(NC(C)C)n1 [atrazine] | – | – | – | SC50 [2]: 0.2 to 0.8 ng/mL; IC50 of conventional chemical hapten assay (MoAb K4E7 [3]): 0.0005 µg/mL; IC50 of competitive assay set up with the same antibody (MoAb K4E7 [4]): 0.00064 ± 6e-05 µg/mL
CCSC(=O)N1CCCCCC1 [molinate] | – | – | – | IC50 of competitive assay set up with heterologous chemical haptens (MoAb 14D7 [5]): 69 ng/ml and 69.2±1.4 ng/ml; IC50 of phage competitive assay (MoAb 14D7 [6]): 0.045 µg/mL
C N I W D T S G W C (CNIWDTSGWC; phage-displayed) [mH, phage clone from the mutagenesis library] | – | – | 27 ± 2.0 ng/mL | –
C N L W D T T G W C (CNLWDTTGWC; phage-displayed) [mF, phage clone from the mutagenesis library] | – | – | 11 ± 0.5 ng/mL | –
C N R W D T T G W C (CNRWDTTGWC; not fully specified (bridges); cysteine pairing not given here; also: phage-displayed on pVIII) [8M2] | – | – | 6.1 ± 0.3 ng/mL and 6.0 ± 0.3 ng/mL | –
C S I W D T T G W C (CSIWDTTGWC; phage-displayed) [mI12, phage clone from the mutagenesis library] | – | – | 8.1 ± 0.6 ng/mL | –
C S L W D T T G W C (CSLWDTTGWC; phage-displayed) [mA, phage clone from the mutagenesis library] | – | – | 8.5 ± 0.5 ng/mL | residual reactivity with the free (uncombined) antibody (MoAb 14D7 [8]): little reactivity with the free antibody
C S T W D T T G W C (CSTWDTTGWC; also: phage-displayed on pVIII, cyclic, bridge not given here) [1M] | – | – | 5.0 ± 0.4 ng/mL | SC50 (concentration of analyte producing 50% saturation) ([7]; listed as S1): 5 ng/mL
C S V W D T S G W C (CSVWDTSGWC; not fully specified (bridges); cysteine pairing not given here; also: phage-displayed) [10M2] | – | – | 32 ± 5 ng/mL and 32 ± 4.9 ng/mL | SC50 (concentration of analyte producing 50% saturation) ([7]; listed as S4): 32 ng/mL
C S Y W D T T G W C (CSYWDTTGWC; phage-displayed) [mG, phage clone from the mutagenesis library] | – | – | 16 ± 0.7 ng/mL | –
CTPVRWFDMC (phage-displayed) [13A] | – | – | – | SC50 [2]: 0.0511 ± 0.002 ng/mL
